The numbers were not newly measured in US11317628B2, “Microparticle compositions comprising saflufenacil” (BASF Agro B.V., priority 2015, dated 2022), which cites them from elsewhere.

SMILES strings stand for the structures.

For this data set the following is noted: background statement.

As to `CC(C)N(C)S(=O)(=O)NC(=O)c1cc(-n2c(=O)cc(C(F)(F)F)n(C)c2=O)c(F)cc1Cl` [Saflufenacil, 2-chloro-5-[3,6-dihydro-3-methyl-2,6-dioxo-4-(trifluoromethyl)-1-(2H)pyrimidinyl]-4-fluoro-N-[[methyl(1-methylethyl)amino]sulfonyl]benzamide], the Solubility in water result was “only sparingly soluble in water”.
